Patent US20230302009A1, “BACE1 INHIBITOR TREATMENT FOR S[…] STORM” (priority 2020, published 2023)

Key:
[1] = AD clinical trials (refs 27, 28, 34, 35); cited from earlier work
[2] = system: LPS-challenged mice; test: H&E histology, tissue injury score after LPS; conditions: LPS only or LPS plus MK-8931
[3] = system: LPS-challenged mice; test: Survival rescue after lethal dose of LPS; type: in vivo, C57BL/6 mice
[4] = system: LPS-challenged mice; conditions: mice without LPS treatment, MK-8931 50 mg/kg oral
[5] = MK-8931 plus LPS versus LPS only

SMILES	tolerability in patients [1]	tissue injury in spleen and liver [2]	mice died ([3]; LPS 15 mg/kg i.p. plus MK-8931 50 mg/kg oral, 3 of 14 mice, between 20 to 96 hours after LPS)	mice survived ([3]; LPS 15 mg/kg i.p. plus MK-8931 50 mg/kg oral, 11 of the 14 mice)	increase of survival [3, 5]	reduction of mortality rate [3, 5]	plasma levels of cytokines/chemokines, MK-8931 alone [4]
CC#Cc1cncc(-c2ccc3c(c2)C2(N=C(C)C(N)=N2)C2(CCC(OC)CC2)C3)c1 (stereo not drawn) [AZD3293]	well-tolerated	–	–	–	–	–	–
C[C@@]1(c2nc(NC(=O)c3ncc(C(F)(F)F)cc3Cl)ccc2F)CO[C@@](C)(C(F)(F)F)C(N)=N1 [CNP50]	well-tolerated	–	–	–	–	–	–
CN1C(N)=N[C@](C)(c2cc(NC(=O)c3ccc(F)cn3)ccc2F)CS1(=O)=O [MK-8931]	safe oral drug and well-tolerated	No significant tissue injury	21.4%	78.6%	367%	3.7 fold	did not affect
